Here are results for three compounds from article PMC6114103, “17-DMAG inhibits the multiplication of several Babesia species and Theileria equi on in vitro cultures, and Babesia microti in mice” (International Journal for Parasitology: Drugs and Drug …, 2018).

Molecules are shown by their SMILES. Where only a bound is given, the exact number is not on record here.

For data set [1], the system named is B. caballi (USDA strain). Briefly: in vitro multiplication inhibition assay (SYBR Green I fluorescence, 96 h), single drugs and two-drug combinations. The class given is cell-based, Babesia caballi. The note with it: B. caballi, 96 h, triplicate, mean ± SD; read-out: IC50 on in vitro culture of parasites. Here is the method:
(§1) Babesia parasite cultures were maintained using a microaerophilic stationary-phase culture system ([Levy and Ristic, 1980]; [Avarzed et al., 1997]; [Igarashi et al., 1998]). Briefly, bovine Babesia parasites were grown in bovine red blood cells (RBC) in the specific complete medium for each species. The medium for B. bovis (Texas strain) contained GIT medium supplemented with 10% bovine serum, while the medium for B. bigemina (Argentina strain) and B. divergens (Germany strain) was Medium 199 and RPMI 1640 medium, respectively, supplemented with 40% bovine serum ([Rizk et al., 2016]). B. caballi (USDA strain) was grown using equine RBC in GIT medium supplemented with 10% equine serum. T. equi (USDA strain) was grown in equine RBC in M199 medium supplemented with 40% equine serum and hypoxanthine (MP Biomedicals, USA) at a final concentration of 13.6 μg/ml. All of the media included 60 U/ml penicillin G, 60 μg/ml streptomycin, and 0.15 μg/ml amphotericin B (Sigma-Aldrich, USA). The cultures were incubated at 37 °C in a humidified chamber with an atmosphere of 5% CO2, 5% O2, and 90% N2.
(§2) The assays were conducted in accordance with the protocol described previously with modification ([Guswanto et al., 2014]). Briefly, the cultures of B. bovis, B. bigemina, B. divergens, B. caballi, and T. equi with a parasitemia of 8%, 3%, 10%, 4%, and 9%, respectively, were harvested and adjusted to 1% parasitemia with fresh RBC before the inhibition assay. The 60 inner wells of a 96-well plate were used in the assay, while the peripheral wells were filled with sterile distillate water to reduce evaporation during incubation. To each well in triplicate, 2.5 μl of infected RBC (5 μl for B. divergens, B. caballi, and T. equi) was added and mixed with a culture medium containing the drug to a total volume of 100 μl. The stock solution of 17-DMAG, DA, and AV was dissolved in a culture medium at various concentrations using two-fold dilution. A culture medium containing DMSO at a final concentration of 0.2% was added to the well with infected RBC as a positive control and to the well with uninfected RBC as a negative control. Furthermore, a drug combination assay was conducted in parallel with the single drug assay at the constant ratio in accordance with the Chou–Talalay method ([Chou, 2006]). In the same plate with a single drug inhibition assay, a two-drug combination (DA+17-DMAG, DA + AV, and 17-DMAG + AV) at concentrations of 0.25 x IC50, 0.5 x IC50, IC50, 2 x IC50, and 4 x IC50 was added to the well containing infected RBC in triplicate. The plate was incubated in a humidified incubator with 5% CO2, 5% O2, and 90% N2. After 96 h, 100 μl of a lysis buffer containing SYBR Green I was added to each well. The plate was wrapped with aluminum foil to avoid direct light exposure and incubated at room temperature. After incubation for 6 h, fluorescence values were measured using a fluorescence spectrophotometer (Fluoroskan Ascent, Thermo Fisher Scientific, USA) with the excitation and emission wavelength at 485 nm and 518 nm, respectively. The fluorescence data were subtracted from the negative control and used to calculate the IC50.
(§3) The IC50 of 17-DMAG, DA, and AV was calculated from the percentage of inhibition on the in vitro multiplication of all tested species using non-linear regression (curve fit), available in GraphPad Prism (GraphPad Software Inc., USA). Combination index (CI) values for the drug combination were calculated using CompuSyn software ([Chou, 2006]). Since the chemotherapy effect is preferable at the highest inhibition, the degree of synergism was determined as the weighted average of CI values using a formula ((1 x IC50) + (2 x IC75) + (3 x IC90) + (4 x IC95))/10 ([Chou, 2006]). The differences among groups regarding the parasitemia, hematology profiles, and body weight in the B. microti–infected mouse model were analyzed using Student's t-test, available in GraphPad Prism software.

Data set [2] relates to B. divergens (Germany strain). The description is as above. The class given is cell-based, Babesia divergens. The settings on record: B. divergens, 96 h, triplicate, mean ± SD; read-out: IC50 on in vitro culture of parasites. The procedure:
as §1, §2, §3

The test system of data set [3] is MDBK cells. Briefly: cytotoxicity (drug-exposure viability) assay, CCK-8. The data set is classed as cell-based, bovine. The procedure:
(§4) Each medium was supplemented with 10% fetal bovine serum, 0.5% penicillin/streptomycin (Gibco, Life Technologies, USA), and an additional 1% glutamine. The medium was changed every 3–4 days and incubated until approximately 80% confluent. The cells were free from mycoplasma contamination after being checked by staining with DAPI (Sigma-Aldrich, USA). The detachment of cells from the culture flask was done using TrypLE™ Express (Gibco, Life Technologies, USA) after washing two times with Dulbecco's phosphate-buffered saline (DPBS). Subsequently, the counting of viable cells was carried out using a Neubauer improved C-Chip (NanoEntek Inc., Korea) after staining with 0.4% trypan blue solution. The drug-exposure viability assay was performed in accordance with the recommendation of the Cell Counting Kit-8 (CCK-8, Dojindo, Japan). Briefly, the assay was carried out using a 96-well plate at 37 °C in a humidified incubator with 5% CO2. One hundred microliters of cells at a density of 5 × 10^4 cells/ml was seeded per well and allowed to attach to the plate for 24 h. […] The exposure of drugs was carried out for 24 h, followed by the addition of 10 μl of CCK-8. The plate was further incubated for 3 h, and the absorbance was measured at 450 nm using a microplate reader.

Data set [4] deals with B. microti (Munich strain). The experiment in a line: inhibition assay using a B. microti-infected mouse model. The settings on record: 17-DMAG 30, DA 25, AV 20 mg/kg BW; 17-DMAG + DA 15 + 15, 17-DMAG + AV 15 + 10, DA + AV 15 + 10 mg/kg BW; 5 consecutive days. The data set is classed as in vivo, BALB/c mice. The procedure: B. microti (Munich strain) was recovered from -80 °C stock in two 6-week female Balb/c mice (Clea, Japan). The parasitemia was monitored every 2 days. […] The inhibitory effect of 17-DMAG was also determined using a B. microti mouse model according to the previous protocol ([Goo et al., 2010]). Briefly, 35 female BALB/c mice aged 8 weeks received an intraperitoneal injection of 1 × 10^7 of B. microti-infected RBC and were divided into seven groups. Another group consisting of five mice was kept uninfected and untreated as a control. The multiplication of B. microti was observed from blood smears after staining with Giemsa using a light microscope. The drug treatment was initiated to all infected mice on day five, after the parasitemia reached approximately 1%, and continue to the total of five consecutive days. Group 1 was treated with 4% DMSO in saline water as a control intraperitoneally. […] The parasitemia was estimated from Giemsa-stained blood smears using microscopy in approximately 5000 RBC. Furthermore, the hematology profiles including RBC, hemoglobin, and hematocrit were measured from 10 μl of mouse blood using an automatic hematology analyzer (Celltac α MEK-6450, Nihon Kohden, Tokyo, Japan). The rate of parasitemia, hematology profiles, and mouse body weight was monitored for 60 days. The experiment was repeated once so each group contained 10 mice. […] Combination index (CI) values for the drug combination were calculated using CompuSyn software ([Chou, 2006]). […] The differences among groups regarding the parasitemia, hematology profiles, and body weight in the B. microti-infected mouse model were analyzed using Student's t-test, available in GraphPad Prism software. The difference was considered significant if P < 0.05.

In data set [5] the test system is NIH/3T3 cells. Briefly: cytotoxicity (drug-exposure viability) assay, CCK-8. The data set is classed as cell-based, mouse. Here is the method:
as §4

In data set [6] the test system is B. bigemina (Argentina strain). Briefly: in vitro multiplication inhibition assay (SYBR Green I fluorescence, 96 h), single drugs and two-drug combinations. The class given is cell-based, Babesia bigemina. The note with it: B. bigemina, 96 h, triplicate, mean ± SD; read-out: IC50 on in vitro culture of parasites. Here is the method: as §1, §2, §3
Data set [7] has as its system B. bovis (Texas strain). The description is as above. The note with it: B. bovis, 96 h, triplicate, mean ± SD; read-out: IC50 on in vitro culture of parasites. The data set is classed as cell-based, Babesia bovis. The procedure: as §1, §2, §3
For data set [8] the following is noted: introduction, background statement; ref Jilani et al., 2013; cited from earlier work.
[9] abbreviates: at a concentration of 40 μM, separate assay.

Take `CC(=O)NCC(=O)O.CC(=O)NCC(=O)O.N=C(N)c1ccc(N=NNc2ccc(C(=N)N)cc2)cc1` [DA, diminazene aceturate]: the IC50 was 13.4 ± 3.6 nM in data set [1]; 378 ± 39.3 nM in data set [2]; over 40 µM in data set [3] (MDBK, 24 h exposure, CCK-8, read-out: IC50 on cell line MDBK); over 40 µM in data set [5] (NIH/3T3, 24 h exposure, CCK-8, read-out: IC50 on cell line NIH/3T3); 1850 ± 104 nM in data set [6]; 190 ± 42.1 nM in data set [7]. In addition, the “inhibition on MDBK cell viability” value in data set [3] (setting [9]) is listed as “did not show any inhibition”. Besides, in data set [4], the “day p.i. on which parasite no longer detected in blood smears via microscopy (parasite clearance)” value is given as at most 28 day p.i. Also, the “inhibition on NIH/3T3 cell viability” value in data set [5] (setting [9]) is “did not show any inhibition”.
For `C=CCNC1=C2C[C@@H](C)C[C@H](OC)[C@H](O)[C@@H](C)/C=C(\C)[C@H](OC(N)=O)[C@@H](OC)/C=C\C=C(/C)C(=O)NC(=CC1=O)C2=O` [17-AAG, 17-N-allylamino-17-demethoxygeldanamycin], the solubility result in data set [8] is given as “poor solubility”.
`COC1=C2C[C@@H](C)C[C@H](OC)[C@H](O)[C@@H](C)/C=C(\C)[C@H](OC(N)=O)[C@@H](OC)/C=C\C=C(/C)C(=O)NC(=CC1=O)C2=O` [geldanamycin]: in data set [8], the solubility entry is “poor solubility”.
